Legend:
BZω3 receptor = target: T1, BZω3 receptor (Rattus norvegicus, UniProt P16257); experiment: BZω3 (peripheral) benzodiazepine receptor binding assay, [3H] 4'-chlorodiazepam (Ro 5-4864); settings: rat kidney membrane, [3H] Ro 5-4864 0.5 nM, 150 minutes at 0° C.; read-out: ω3 IC50
T1 construct: from tissue; host or cells: rat (Wistar) kidney membrane fraction
Protocol: Experiment 1: Central (ω1,ω2) and Peripheral (ω3) Benzodiazepine Receptor Binding Assays
BZω1 and BZω2 receptor binding assays and the preparation of receptor membrane fractions therefor were carried out according to the method of Stephens, D. N. et al. [cf., J. Pharmacol. Exp. Ther., 253, 334-343 (1990)], and BZω3 receptor binding assay and the preparation of receptor membrane fraction therefor were done according to the method of Schoemaker, H. [cf, J. Pharmacol. Exp. Ther., 225, 61-69 (1983)] each with slight modification.
Receptor membrane fractions for ω1, ω2 and ω3 were prepared from the cerebellum (ω1), spinal cord (ω2) or kidney (ω3) in 7-8 week old male rats of Wistar strain, respectively, by the procedure described below.
After the cerebellum or spinal cord was homogenized with 20 volumes of ice-cold 50 mM Tris-citrate buffer (pH 7.1), the homogenate was centrifuged for 15 minutes at 40,000 g. The pellet obtained was washed 4 times by the same procedure, and frozen and stored for 24 hours at −60° C. The resulting pellet, after being thawed, washed with the buffer and centrifuged, was suspended in the buffer I for the binding assay (50 mM Tris-HCl buffer containing 120 mM NaCl, 5 mM KCl, 2 mM CaCl2 and 1 mM MgCl2; pH 7.4) and the suspension thus obtained (containing 1 g wet tissue/40 ml) was used for the BZω1 and BZω2receptor binding assays. On the other hand, the kidney was homogenized with 20 volumes of the ice-cold buffer II for the binding assay (50 mM Na-K phosphate buffer containing 100 mM NaCl; pH 7.4), and the mixture was filtered through 4 sheets of gauze, and centrifuged for 20 minutes at 40,000 g. The pellet obtained was suspended in the buffer II and the suspension (containing 1 g wet tissue/100 ml) was used for the binding assay as BZω3 receptor membrane source.
[^3H] Flumazenil (Ro 15-1788) (final concentration: 0.3 nM for ω1, and 1 nM for ω2) and flunitrazepam (final concentration: 10 μM) were used for the BZω1 or BZω2 receptor binding assays as the isotope-labeled and unlabeled ligands, respectively. For the BZω3 receptor binding assay, [^3H] 4′-chlorodiazepam (7-chloro-1,3-dihydro-1-methyl-5-(4-chlorophenyl)-2H-1,4-diazepin-2-one) (Ro 5-4864) (final concentration: 0.5 nM) and diazepam (final concentration: 100 μM) were used as the isotope-labeled and unlabeled ligands, respectively. Incubation was performed for 30 minutes at 37° C. in the BZω1 or BZω2 receptor binding assays, and for 150 minutes at 0° C. in the BZω3 receptor binding assay. The BZω1 or BZω2 receptor binding assays were carried out in the presence of bicuculline (final concentration: 100 μM).
The binding assay was performed by the following procedure. After adding each test compound at certain known concentrations, a [^3H] ligand, and the buffer I or II to each test tube, each assay was started by addition of membrane preparation (total volume of 1 ml). After incubation, the assay was terminated by filtration with suction through a Whatman GF/B glass fiber filter using a cell harvester (Brandel, USA). The filters were rapidly washed 3 times with 5 ml of ice-cold 50 mM Tris-HCl buffer (pH 7.7) for ω1 and ω2, or the buffer II for ω3, and transferred to scintillation vials containing 10 ml liquid scintillation cocktail (ACS-II, Amersham, USA). After being allowed to stand for a specific period, retained radioactivity was counted by a liquid scintillation spectrometer. Specific binding of [^3H] ligands was calculated as the difference between amounts of radioactivity bound in the presence and absence of excess unlabeled ligands. The concentration of the test compounds causing 50% inhibition of specific binding of the [3H] ligand (IC50) was determined by probit analysis.

Structure (SMILES) | IC50 (BZω3 receptor) | melting point
CN(C(=O)Cn1c(=O)n(C)c2nc(-c3cccnc3)ncc21)c1ccccc1 [Example 37] | 2.8 nM | 209 to 211 °C
CCCn1c(=O)n(CC(=O)N(CC)CC)c2nc(-c3ccccc3)ncc21 [Example 126] | – | 141 to 143 °C
CCN(C(=O)Cn1c(=O)n(CC)c2nc(-c3ccccc3)ncc21)c1ccccc1 [Example 16] | – | 165 to 167 °C
CN(C(=O)Cn1c(=O)n(C)c2cnc(-c3ccccc3)nc21)c1ccccc1 [Example 156] | 0.67 nM | 202 to 203 °C
COc1ccc(-c2ncc3c(n2)n(C)c(=O)n3CC(=O)N(C)c2ccccc2)cc1 [Example 6] | 2 nM | 176 to 178 °C
CCn1c(=O)n(CC(=O)N(C)c2ccc(Cl)cc2)c2nc(-c3ccccc3)ncc21 [Example 162] | 1.1 nM | 173 to 175 °C
CN(Cc1ccccc1F)C(=O)Cn1c(=O)n(C)c2nc(-c3ccccc3)ncc21 [Example 71] | 0.43 nM | 198 to 199 °C
CCN(CC)C(=O)Cn1c(=O)n(CC)c2nc(-c3ccccc3)ncc21 [Example 25] | – | 148 to 150 °C
CCN(C(=O)Cn1c(=O)n(C)c2nc(-c3cccc(Cl)c3)ncc21)c1ccccc1 [Example 10] | 1 nM | 195 to 196 °C
CCCN(CCC)C(=O)Cn1c(=O)n(C)c2cnc(-c3ccc(OC)cc3)nc21 [Example 114] | 0.97 nM | 157 to 158 °C
COc1ccc(CN(C)C(=O)Cn2c(=O)n(C)c3nc(-c4ccccc4)ncc32)cc1 [Example 73] | 1.7 nM | 174 to 176 °C
CN(C(=O)Cn1c(=O)n(C)c2nc(-c3ccc(Cl)cc3)ncc21)c1ccccc1 [Example 4] | 1.6 nM | 188 to 190 °C
CCN(CC)C(=O)Cn1c(=O)[nH]c2cnc(-c3ccccc3)nc21 [Example 85] | – | 222 to 224 °C
CCCn1c(=O)n(CC(=O)N(CC)c2ccccc2)c2cnc(-c3ccccc3)nc21 [Example 17] | – | 138 to 139 °C
CCN(Cc1ccc(F)cc1)C(=O)Cn1c(=O)n(C)c2nc(-c3ccccc3)ncc21 [Example 74] | 0.99 nM | 166 to 167 °C
CCCn1c(=O)n(CC(=O)N(C)c2ccccc2)c2nc(-c3ccccc3)ncc21 [Example 158] | – | 183 to 185 °C
CN(C)C(=O)Cn1c(=O)n(C)c2nc(-c3ccccc3)ncc21 [Example 35] | – | 204 to 206 °C
CCN(C(=O)Cn1c(=O)n(C)c2nc(-c3ccccc3)nc(-c3ccccc3)c21)c1ccccc1 [Example 41] | – | 185 to 187 °C
CCCN(CCC)C(=O)Cn1c(=O)[nH]c2cnc(-c3ccc([N+](=O)[O-])cc3)nc21 [Example 83] | 1.3 nM | 256 to 258 °C
CCCN(CCC)C(=O)Cn1c(=O)n(CC)c2nc(-c3ccccc3)ncc21 [Example 33] | – | 134 to 135 °C
CN(Cc1ccc(F)cc1)C(=O)Cn1c(=O)n(C)c2nc(-c3ccccc3)ncc21 [Example 69, N-(4-fluorobenzyl)-8,9-dihydro-9-methyl-N-methyl-8-oxo-2-phenyl-7H-purin-7-acetamide] | 0.55 nM | –
CCCN(CCC)C(=O)Cn1c(=O)n(CCC)c2cnc(-c3ccccc3)nc21 [Example 120] | – | 125 to 127 °C
CCn1c(=O)n(CC(=O)N(C)C)c2nc(-c3ccccc3)ncc21 [Example 128] | – | 187 to 189 °C
CN(C(=O)Cn1c(=O)[nH]c2cnc(-c3ccccc3)nc21)c1ccccc1 [Example 98] | – | 286 to 287 °C
CCCN(CCC)C(=O)Cn1c(=O)[nH]c2cnc(-c3ccc(Cl)cc3)nc21 [Example 97, 2-(4-chlorophenyl)-7,8-dihydro-8-oxo-N,N-dipropyl-9H-purin-9-acetamide] | 0.35 nM | –
CCCCn1c(=O)n(CC(=O)N(CCC)CCC)c2nc(-c3ccccc3)ncc21 [Example 122] | – | 129 to 130 °C

Structure (SMILES) | IC50 (BZω3 receptor) | melting point
CCCCN(CCCC)C(=O)Cn1c(=O)n(C)c2cnc(-c3ccccc3)nc21 [Example 134] | – | 192 to 193 °C
CCCCN(CCCC)C(=O)Cn1c(=O)n(CC)c2cnc(-c3ccccc3)nc21 [Example 135] | – | 135 to 136 °C
CCCCN(CCCC)C(=O)Cn1c(=O)[nH]c2cnc(-c3ccccc3)nc21 [Example 95] | – | 196 to 198 °C
CCN(C(=O)Cn1c(=O)n(C)c2nc(-c3ccc(Cl)cc3)ncc21)c1ccccc1 [Example 11] | – | 174 to 175 °C
CCN(C(=O)Cn1c(=O)n(CC)c2cnc(-c3ccccc3)nc21)c1ccccc1 [Example 167] | – | 154 to 155 °C
CN(C)C(=O)Cn1c(=O)n(C)c2cnc(-c3ccccc3)nc21 [Example 127] | – | 262 to 264 °C
CCN(C(=O)Cn1c(=O)n(C)c2nc(-c3cccnc3)ncc21)c1ccccc1 [Example 38] | – | 195 to 196 °C
CCCCN(C(=O)Cn1c(=O)n(C)c2nc(-c3ccccc3)ncc21)c1ccccc1 [Example 62] | – | 207 to 209 °C
CCCCN(CCCC)C(=O)Cn1c(=O)n(C)c2nc(-c3ccccc3)ncc21 [Example 63] | – | 138 to 139 °C
CCN(Cc1ccccc1)C(=O)Cn1c(=O)n(C)c2cnc(-c3ccccc3)nc21 [Example 146, N-benzyl-N-ethyl-7,8-dihydro-7-methyl-8-oxo-2-phenyl-9H-purin-9-acetamide] | 0.85 nM | –
CN(C)C(=O)Cn1c(=O)[nH]c2cnc(-c3ccccc3)nc21 [Example 86] | – | > 300 °C
CCn1c(=O)n(CC(=O)N(C)c2ccccc2)c2cnc(-c3ccccc3)nc21 [Example 8] | – | 160 to 161 °C
CCCn1c(=O)n(CC(=O)N(CC)c2ccccc2)c2nc(-c3ccccc3)ncc21 [Example 168] | – | 140 to 142 °C
CCCN(C(=O)Cn1c(=O)n(CC)c2nc(-c3ccccc3)ncc21)c1ccccc1 [Example 61] | – | 168 to 170 °C
CCN(CC)C(=O)Cn1c(=O)n(C)c2nc(-c3ccccc3)ncc21 [Example 19] | – | 207 to 209 °C
CN(C(=O)Cn1c(=O)[nH]c2cnc(-c3cccnc3)nc21)c1ccccc1 [Example 84] | – | 268 to 270 °C
CCN(Cc1ccc(Cl)cc1)C(=O)Cn1c(=O)n(C)c2nc(-c3ccccc3)ncc21 [Example 77] | – | 198 to 199 °C
CCCN(C(=O)Cn1c(=O)n(C)c2cnc(-c3ccccc3)nc21)c1ccccc1 [Example 169] | – | 174 to 176 °C
CCCN(C(=O)Cn1c(=O)[nH]c2cnc(-c3ccccc3)nc21)c1ccccc1 [Example 96] | – | 258 to 260 °C
CCCN(C(=O)Cn1c(=O)n(C)c2nc(-c3ccccc3)ncc21)c1ccccc1 [Example 60] | – | 221 to 223 °C
CCN(C(=O)Cn1c(=O)[nH]c2nc(-c3ccccc3)ncc21)c1ccccc1 [Example 9] | – | 281 to 284 °C
CCN(CC)C(=O)Cn1c(=O)n(C)c2cnc(-c3ccccc3)nc21 [Example 124] | – | 204 to 206 °C
CN(Cc1ccccc1)C(=O)Cn1c(=O)n(C)c2nc(-c3ccccc3)ncc21 [Example 48, N-benzyl-8,9-dihydro-9-methyl-N-methyl-8-oxo-2-phenyl-7H-purin-7-acetamide] | 0.68 nM | –
CN(C(=O)Cn1c(=O)n(C)c2cnc(-c3cccnc3)nc21)c1ccccc1 [Example 171] | – | 216 to 217 °C
CCN(CC)C(=O)Cn1c(=O)n(CC)c2cnc(-c3ccccc3)nc21 [Example 125] | – | 198 to 200 °C
CCCN(CC)C(=O)Cn1c(=O)n(C)c2nc(-c3ccccc3)ncc21 [Example 34] | – | 150 to 151 °C

From patent publication US6372740B1, “2-aryl-8-oxodihydropurine derivative, process for the producing the same, medicinal compositions containing the same, and intermediates thereof” (Dainippon Pharmaceutical Co., Ltd., priority 1997, dated 2002)
